This is an account of results in publication PMC10501326, “A Phase I Study of the Pan-Notch Inhibitor CB-103 for Patients with Advanced Adenoid Cystic Carcinoma and Other Tumors” (Cancer Research Communications, 2023).

Where “and” joins values, the source holds several entries; their conditions need not be identical. Identical values can stand only once. Entries after “also recorded” stand apart in the source; their conditions may differ.

For assay [1], the system named is Notch target genes (HEY1, IL7R alpha, NOTCH1, 2 and 4). The assay is described as follows: Peripheral Notch target gene expression versus exposure (gene panel, in words). The assay is classed as in vivo, human. To be noted: patients with ACC on twice daily dosing (n = 13); up to 1,000 mg (500 mg twice daily). The source says:
(§1) Archival tumor tissue (not older than 6 months prior to screening) or fresh tumor biopsy was required to characterize Notch alteration status by targeted genomic sequencing and/or NICD1 expression (via IHC) among the confirmatory cohort at baseline. Repeat biopsy on cycle 2 day 15 and at disease progression was optional. Serial whole blood samples (and/or bone marrow samples and saliva among patients with T-ALL/T-LBL) were obtained on day 1 of cycles 1–6 to evaluate the dynamics of Notch gene expression. Peripheral blood was collected with PaxGene tubes and frozen at −20°C until processing. RNA was extracted (Qiagen RNeasy Micro kit) from peripheral whole blood and analyzed by Nanostring with percent change in expression levels reported with respect to baseline normalized values.
Percent change (%) in peripheral blood cell Notch target gene expression was monitored among a subset of patients with ACC receiving twice daily dosing (n = 13).

Another assay concerns NOTCH1. The assay is described as follows: Peripheral whole blood Notch target gene expression (Nanostring). It counts as in vivo, human. As to conditions: twice daily dosing, vs baseline.
Text: as §1

For another assay, the system named is NOTCH4. Described as above. It counts as in vivo, human. To be noted: twice daily dosing, vs baseline.
Text: as §1

For another assay, the system named is NOTCH 2. Described as above. It counts as in vivo, human. To be noted: twice daily dosing, vs baseline.
Text: as §1

The next assay deals with HEY1. The description is as above. The assay is classed as in vivo, human. As to conditions: twice daily dosing, vs baseline.
Text: as §1

A further assay concerns IL7R alpha. The description is as above. To be noted: twice daily dosing, vs baseline. The assay is classed as in vivo, human.
Text: as §1

Details of assay [2]: method as in PMID 32601208. As to conditions: single agent and in combination with targeted and cytotoxic therapies; cited from earlier work.
Setting [3] is: individual patient, total dose 800 mg.
The mark [4] stands for this setting: individual patients, total dose 500 mg.
Setting [5] is: individual patients, total dose 600 mg.
Where [6] appears, read: individual patients, total dose 1000 mg.

Turning to `CC(C)(C)c1ccc(Oc2ccc(N)cn2)cc1` [CB-103], the “Peripherally measured Notch target gene expression levels versus exposure/dose” value in assay [1] is “downregulation; also recorded: declined with increasing exposure”. Besides, the “NOTCH1 percent change in peripheral expression” value was -15.5% in the assay with NOTCH1 (setting [3]); 39.2% and -7.1% with NOTCH1 (setting [4]); -28.1% and -41.2% and -35.7% and -14.2% and -39.7% in the assay with NOTCH1 (setting [5]); -8.7% and -0.1% and -58.3% and -20.2% and -13.3% with NOTCH1 (setting [6]). Also, the “NOTCH4 percent change in peripheral expression” value was -3.5% in the assay with NOTCH4 (setting [3]); 37.6% and -16.9% with NOTCH4 (setting [4]); 34.0% and -49.7% and -7.9% and 11.5% and 32.9% in the assay on NOTCH4 (setting [5]); -20.8% and -40.4% and 22.0% and 4.5% and 29.7% with NOTCH4 (setting [6]). Moreover, the “NOTCH 2 percent change in peripheral expression” value in the assay with NOTCH 2 (setting [3]) was -9.4%; in the assay with NOTCH 2 (setting [4]), 19.9% and -9.6%; in the assay on NOTCH 2 (setting [5]), -25.2% and -38.4% and -5.5% and -14.8% and -41.1%; in the assay with NOTCH 2 (setting [6]), -31.8% and -14.2% and -39.3% and -15.2% and 5.1%. Moreover, the “HEY1 percent change in peripheral expression” value was 52.3% in the assay on HEY1 (setting [3]); -52.0% with HEY1 (setting [4]); 5.0% and -36.1% and 30.3% and -25.6% with HEY1 (setting [5]); 11.7% and -71.3% and -75.9% and -55.2% and -57.8% with HEY1 (setting [6]). In addition, the “IL7R alpha percent change in peripheral expression” value in the assay on IL7R alpha (setting [3]) is -29.7%; with IL7R alpha (setting [4]), 32.3% and 33.5%; in the assay with IL7R alpha (setting [5]) it was 58.3% and -58.0% and -24.8% and -2.9% and -29.3%; in the assay on IL7R alpha (setting [6]) it was -53.6% and 3.5% and -16.2% and 0.2% and -41.7%. Also, the Anticancer activity result in assay [2] is listed as “potent anticancer activity”.
